From ChEMBL document CHEMBL1126552 (J Med Chem, 1993) come the findings set out here.

For the first test, the target named is T1, Adenosine receptor A1 (Rattus norvegicus, UniProt P25099).
T1 sequence (P25099 whole entry): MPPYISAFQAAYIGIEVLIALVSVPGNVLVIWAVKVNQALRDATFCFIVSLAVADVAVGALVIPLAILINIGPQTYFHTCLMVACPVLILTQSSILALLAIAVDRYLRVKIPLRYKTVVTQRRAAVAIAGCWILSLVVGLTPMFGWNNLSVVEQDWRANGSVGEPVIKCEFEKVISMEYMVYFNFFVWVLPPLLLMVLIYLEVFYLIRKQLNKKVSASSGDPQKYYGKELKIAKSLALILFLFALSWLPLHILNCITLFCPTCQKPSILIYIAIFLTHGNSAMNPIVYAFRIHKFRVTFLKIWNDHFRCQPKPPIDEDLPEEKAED
Kind of test: Binding affinity towards adenosine A1 receptor was determined using radioligand [3H]CHA in whole rat brain membranes at 25 degree C. Type of test: cell membranes.
`CCCn1c(=O)c2nc(C(CC)c3ccccc3)[nH]c2n(CCC)c1=O` (centres undefined) yielded a Ki of 0.0335 µM. `CCCn1c(=O)c2nc([C@@H](CC)c3ccccc3)[nH]c2n(CCC)c1=O` showed a Ki of 0.136 µM.

A further test concerns the target Adenosine A2 receptor (Rattus norvegicus, UniProt P29276+P30543). Put plainly: Binding affinity towards adenosine A2 receptor was determined using radioligand [3H]NECA in rat brain striatum at 25 degree C. Type of test: tissue-based.
In turn, `CCCn1c(=O)c2nc(C(CC)c3ccccc3)[nH]c2n(CCC)c1=O` (centres undefined) displayed a Ki of 3.21 µM.

`CCCn1c(=O)c2nc([C@H]3CCC[C@@H]3c3ccccc3)[nH]c2n(CCC)c1=O` registered a Ki of 2.72 µM.

Molecule `CCCn1c(=O)c2nc([C@H](CC)c3ccccc3)[nH]c2n(CCC)c1=O` registered a Ki of 3.51 µM. In turn, `CCCn1c(=O)c2nc([C@H](C)c3ccccc3)[nH]c2n(CCC)c1=O` showed a Ki of 4.22 µM. In turn, `CCCn1c(=O)c2nc([C@@H](C)c3ccccc3)[nH]c2n(CCC)c1=O` displayed a Ki of 12.9 µM. On the same count and under the same terms, under `CCCn1c(=O)c2nc(C(CO)Cc3ccccc3)[nH]c2n(CCC)c1=O` (centres undefined) stands 12.8 µM; under `CCCn1c(=O)c2nc(C3CCc4ccccc4C3)[nH]c2n(CCC)c1=O` (centres undefined), 10.3 µM; under `CCCn1c(=O)c2nc(CC(C)c3ccccc3)[nH]c2n(CCC)c1=O` (centres undefined), 1.74 µM.

In turn, `CCCn1c(=O)c2nc([C@@H](CC)c3ccccc3)[nH]c2n(CCC)c1=O` yielded a Ki of 7.5 µM. Same read-out and setting: for `CCCn1c(=O)c2nc(C(C)c3ccccc3)[nH]c2n(CCC)c1=O` (centres undefined) the value was 4.9 µM; for `CCCn1c(=O)c2nc(C(CC)Cc3ccccc3)[nH]c2n(CCC)c1=O` (centres undefined), 1.23 µM; for `CCCn1c(=O)c2nc(C3Cc4ccccc4C3)[nH]c2n(CCC)c1=O`, 8.35 µM. Consider `CCCC(Cc1ccccc1)c1nc2c(=O)n(CCC)c(=O)n(CCC)c2[nH]1` (centres undefined), for which the Ki was 0.61 µM.

The next test deals with Adenosine receptors; A1 & A2 (Rattus norvegicus) (UniProt P29276+P25099+P30543). Put plainly: Selectivity as ratio of Ki against A2 and A1 receptors. Format: protein assay.
In the case of `CCCn1c(=O)c2nc(C(CC)c3ccccc3)[nH]c2n(CCC)c1=O` (centres undefined), the Ratio was found to be 95. Same read-out and setting: under `CCCn1c(=O)c2nc([C@H](CC)c3ccccc3)[nH]c2n(CCC)c1=O` stands 153; under `CCCn1c(=O)c2nc(CC(C)c3ccccc3)[nH]c2n(CCC)c1=O` (centres undefined), 18. The same measure, in the same setting: under `CCCn1c(=O)c2nc([C@@H](CC)c3ccccc3)[nH]c2n(CCC)c1=O` stands 55.

The Ki is the equilibrium dissociation constant of an inhibitor or competing ligand from its target. The low end stands for higher affinity, the high end for lower affinity.
